Source: BindingDB's records for doi:10.1016/j.bioorg.2015.05.010 (Universiti Teknologi Mara (Uitm), 2015)

target: T1, Beta-glucuronidase (Bos taurus, UniProt A3KMY8); test: Beta-glucuronidase Inhibition Assay
T1 sequence (A3KMY8 whole entry): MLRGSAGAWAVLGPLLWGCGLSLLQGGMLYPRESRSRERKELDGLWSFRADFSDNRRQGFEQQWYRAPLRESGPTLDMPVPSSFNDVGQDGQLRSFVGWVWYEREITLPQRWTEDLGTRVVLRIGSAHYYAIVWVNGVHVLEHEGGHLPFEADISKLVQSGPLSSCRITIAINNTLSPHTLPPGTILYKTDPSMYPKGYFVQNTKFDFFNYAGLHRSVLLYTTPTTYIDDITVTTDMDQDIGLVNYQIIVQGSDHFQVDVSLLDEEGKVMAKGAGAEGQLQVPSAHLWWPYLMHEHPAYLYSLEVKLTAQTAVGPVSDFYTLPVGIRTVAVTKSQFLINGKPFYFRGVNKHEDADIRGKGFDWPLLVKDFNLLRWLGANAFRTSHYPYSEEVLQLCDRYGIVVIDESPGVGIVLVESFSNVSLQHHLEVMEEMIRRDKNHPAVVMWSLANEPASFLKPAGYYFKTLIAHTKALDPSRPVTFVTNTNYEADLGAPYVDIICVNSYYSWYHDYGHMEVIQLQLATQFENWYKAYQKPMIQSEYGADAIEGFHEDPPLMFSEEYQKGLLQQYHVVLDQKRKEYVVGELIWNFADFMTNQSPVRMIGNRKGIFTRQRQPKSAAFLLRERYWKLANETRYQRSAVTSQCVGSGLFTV
Description: The total reaction volume was 250 µL. […] The reaction mixture contained 185 µL of 0.1 M acetate buffer, 5 µL of test compound solution, 10 µL of enzyme solution was incubated at 37 °C for 30 min. […] All assays were run in triplicate.

Compound | IC50 [µM]
Oc1cccc(-c2nc3c(Cl)cc(Cl)cc3[nH]2)c1O [3-(4,6-dichloro-1H-benzo[d]imidazol-2-yl)benzene-1,2-diol (4)] | 60.5
Clc1ccc(-c2nc3c(Cl)cc(Cl)cc3[nH]2)cc1 [4,6-Dichloro-2-(4-chlorophenyl)-1H-benzo[d]imidazole (12)] | 36.1
Clc1cc(Cl)c2nc(-c3ccccn3)[nH]c2c1 [4,6-dichloro-2-(pyridin-2-yl)-1H-benzo[d]imidazole (19)] | 86.1
Oc1ccc(-c2nc3c(Cl)cc(Cl)cc3[nH]2)cc1O [4-(4,6-dichloro-1H-benzo[d]imidazol-2-yl)benzene-1,2-diol (5)] | 46.1
COc1ccc(-c2nc3c(Cl)cc(Cl)cc3[nH]2)cc1O [5-(4,6-dichloro-1H-benzo[d]imidazol-2-yl)-2-methoxyphenol (9)] | 86.3

Now those with a lower IC50, led by results:

IC50 [µM] | Compound
15.5 | COc1ccc(O)c(-c2nc3c(Cl)cc(Cl)cc3[nH]2)c1 [2-(4,6-dichloro-1H-benzo[d]imidazol-2-yl)-4-methoxyphenol (8)]
11.5 | Oc1ccc(O)c(-c2nc3c(Cl)cc(Cl)cc3[nH]2)c1 [2-(4,6-dichloro-1H-benzo[d]imidazol-2-yl)benzene-1,4-diol (7)]
4.48 | Oc1ccccc1-c1nc2cc(Cl)cc(Cl)c2[nH]1 [2-(4,6-dichloro-1H-benzo[d]imidazol-2-yl)phenol (1)]
28.4 | Oc1cccc(-c2nc3c(Cl)cc(Cl)cc3[nH]2)c1 [3-(4,6-dichloro-1H-benzo[d]imidazol-2-yl)phenol (2)]
14.2 | Oc1ccc(-c2nc3c(Cl)cc(Cl)cc3[nH]2)c(O)c1 [4-(4,6-dichloro-1H-benzo[d]imidazol-2-yl)benzene-1,3-diol (6)]
14.2 | Oc1ccc(-c2nc3c(Cl)cc(Cl)cc3[nH]2)cc1 [4-(4,6-dichloro-1H-benzo[d]imidazol-2-yl)phenol (3)]
